Results: patent US20250129051A1, “PARP1 INHIBITORS AND USES THEREOF” (Gilead Sciences, Inc., priority 2023, published 2025)

Columns and labels:
Assay type in all cases: cell-based
[1] = system: MDA-MB-436 (mutated BRCA1) cells; assay: Cell growth inhibition assay (CellTiter-Glo), MDA-MB-436; settings: Homo sapiens, 168 h; MDA-MB-436 cells, 7 days, CellTiter Glo 2.0
Excerpt: (§1) The objective of this study was to evaluate the effect of a compound disclosed herein on cell proliferation through the cell viability assay in DLD-1 BRCA2 (−/−) and parental isogenic pair and MDA-MB-436 (mutated BRCA1) cell lines. The CellTiter-Glo (CTG) based cell viability assay was designed to determine the number of viable cells in the culture because of compound effect, by quantifying adenosine triphosphate (ATP), which indicates the presence of metabolically active cells.
(§2) DLD-1 BRCA2 (−/−) and parental isogenic pair were cultured in RPMI 1640 supplemented with 10% fetal bovine serum (FBS), and MDA-MB-436 cells were cultured in Dulbecco's Modified Eagle Medium (DMEM) supplemented with 10% FBS. Both were cultured at 37° C. with 5% CO2. Compounds were distributed to the 384 well plate (Corning, 3764) using Echo acoustic liquid handler to form a 1:3 serially diluted final concentration with top dose of 10 or 30 μM. The cells were seeded into the plate in the density of 50 cells/well (DLD-1 parental), 200 cells/well (DLD-1 BRCA2−/−), or 500 cells/well (MDA-MB-436). After a short spin, the cells were cultured in a well moisturized incubator at 37° C. with 5% CO2 for 7 days without disturbance. The cell viability was measured by CellTiter Glo 2.0 assay kit (Promega, G9243), and growth inhibition rate was calculated and plotted against final compound concentration, and the data were fitted in Xfit to generate IC50.

DLD-1 parental cells = assay: Cell growth inhibition assay (CellTiter-Glo), DLD-1 parental; settings: Homo sapiens, 168 h, 7 days, CellTiter Glo 2.0
Excerpt: as §1, §2

DLD-1 BRCA2 (−/−) cells = assay: Cell growth inhibition assay (CellTiter-Glo), DLD-1 BRCA2 (−/−); settings: Homo sapiens, 168 h, 7 days, CellTiter Glo 2.0
Excerpt: as §1, §2

Row | Structure (SMILES) | IC50 [1] [nM] | IC50 (DLD-1 parental cells) [µM] | IC50 (DLD-1 BRCA2 (−/−) cells) [nM]
1 | Cc1nc2ccc(CN3C[C@H](Oc4ccc(C(=O)NC5CC5)nc4F)[C@H]3C)c(F)c2[nH]c1=O [Compound 6, N-cyclopropyl-6-fluoro-5-(((2R,3S)-1-((5-fluoro-2-methyl-3-oxo-3,4-dihydroquinoxalin-6-yl)methyl)-2-methylazetidin-3-yl)oxy) picolinamide] | 8.9 | > 10 | 28
2 | Cc1nc2ccc(CN3C[C@H](Oc4ccc(C#N)nc4F)[C@H]3C)c(F)c2[nH]c1=O [Compound 7, 6-fluoro-5-(((2R,3S)-1-((5-fluoro-2-methyl-3-oxo-3,4-dihydroquinoxalin-6-yl)methyl)-2-methylazetidin-3-yl)oxy) picolinonitrile] | > 1000 | > 10 | > 1000
3 | CNC(=O)c1ccc(O[C@H]2CN(Cc3ccc4nc(C)c(=O)[nH]c4c3F)[C@@H]2C)c(F)n1 [Compound 5, 6-fluoro-5-(((2R,3S)-1-((5-fluoro-2-methyl-3-oxo-3,4-dihydroquinoxalin-6-yl)methyl)-2-methylazetidin-3-yl)oxy)-N-methylpicolinamide] | 23 | > 10 | 67
